Experimental data from patent US10662195B2, “Protein kinase conjugates and inhibitors” (Celgene Avilomics Research, Inc., priority 2009, dated 2020).

Experiments:
KDR [1] = biological target: T1, KDR (Homo sapiens, UniProt P35968); experiment: Mass spectral analysis of tryptic digest of KDR after incubation with compound; type: binding; conditions: KDR 40 pmols, compound 395 pmols, 3 hrs, MALDI
Description: KDR kinase (40 pmols) was incubated with II-2 (395 pmols) for 3 hrs at 10× access prior to tryptic digestion. Iodoacetamide was used as the alkylating agent after compound incubation. For tryptic digests a 5 ul aliquot (6.7 pmols) was diluted with 10 ul of 0.1% TFA prior to micro C18 Zip Tipping directly onto the MALDI target using alpha cyano-4-hydroxy cinnamic acid as the matrix (5 mg/ml in 0.1% TFA:Acetonitrile 50:50).
For tryptic digests the instrument was set in Reflectron mode with a pulsed extraction setting of 1800. Calibration was done using the Laser Biolabs Pep Mix standard (1046.54, 1296.69, 1672.92, 2093.09, 2465.20). For CID/PSD analysis the peptide was selected using cursors to set ion gate timing and fragmentation occurred at a laser power about 20% higher and He was used as the collision gas for CID. Calibration for fragments was done using the P14R fragmentation calibration for the Curved field Reflectron.

FLT3 = biological target: T2, FLT3 (Homo sapiens, UniProt P36888); experiment: FLT-3 Omnia continuous-read kinase assay; type: biochemical; conditions: 30 min pre-incubation, [ATP]=500 μM; read-out: IC50_APP FLT3
T2 construct: purchased PV3182
T2 sequence (P36888 27-993): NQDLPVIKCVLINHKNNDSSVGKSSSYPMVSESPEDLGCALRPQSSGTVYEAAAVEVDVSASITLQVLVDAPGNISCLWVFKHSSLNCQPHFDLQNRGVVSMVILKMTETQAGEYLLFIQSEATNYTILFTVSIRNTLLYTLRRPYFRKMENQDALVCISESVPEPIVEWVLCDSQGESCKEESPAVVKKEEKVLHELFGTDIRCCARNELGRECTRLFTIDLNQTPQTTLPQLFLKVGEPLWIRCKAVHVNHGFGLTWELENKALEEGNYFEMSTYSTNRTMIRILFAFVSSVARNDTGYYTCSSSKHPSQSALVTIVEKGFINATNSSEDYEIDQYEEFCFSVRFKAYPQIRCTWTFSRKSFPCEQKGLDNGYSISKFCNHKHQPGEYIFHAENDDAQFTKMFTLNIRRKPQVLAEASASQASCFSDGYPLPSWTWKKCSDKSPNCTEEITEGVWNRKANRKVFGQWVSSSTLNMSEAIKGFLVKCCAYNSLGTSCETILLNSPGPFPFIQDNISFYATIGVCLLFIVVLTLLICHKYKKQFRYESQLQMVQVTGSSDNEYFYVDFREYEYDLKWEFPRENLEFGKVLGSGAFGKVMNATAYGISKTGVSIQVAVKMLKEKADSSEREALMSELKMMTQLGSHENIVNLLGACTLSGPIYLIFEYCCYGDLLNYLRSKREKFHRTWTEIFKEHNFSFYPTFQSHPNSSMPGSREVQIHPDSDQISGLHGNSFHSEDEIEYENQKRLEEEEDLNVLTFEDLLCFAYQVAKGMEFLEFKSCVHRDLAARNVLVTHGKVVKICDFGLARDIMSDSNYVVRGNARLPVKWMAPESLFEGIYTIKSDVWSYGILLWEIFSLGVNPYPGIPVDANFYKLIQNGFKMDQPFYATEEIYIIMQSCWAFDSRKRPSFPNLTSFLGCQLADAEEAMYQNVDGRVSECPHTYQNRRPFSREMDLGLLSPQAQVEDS
Description: (§1) A. KDR and FLT-3 Omnia Assay for Potency Assessment:
(§2) The protocol below describes a continuous-read kinase assay to measure inherent potency of Avila Therapeutics' compounds against active KDR and FLT-3 enzymes. The assay was performed substantially as described by the vendor (Invitrogen, Carlsbad, Calif.; http://www.invitrogen.com/content.cfm?pageid=11338.)
(§3) Briefly, 10× stocks of KDR from Invitrogen or BPS Bioscience (PV3660 or 40301) and FLT-3 (PV3182) enzymes, 1.13×ATP (AS001A) and Y9-Sox or Y12-Sox peptide substrates (KCZ1001) were prepared in 1× kinase reaction buffer consisting of 20 mM Tris, pH 7.5, 5 mM MgCl2, 1 mM EGTA, 5 mM β-glycerophosphate, 5% glycerol (10× stock, KB002A) and 0.2 mM DTT (DS001A). 5 μL of enzyme were pre-incubated in a Corning (#3574) 384-well, white, non-binding surface microtiter plate (Corning, N.Y.) for 30 min at 27° C. with a 0.5 μL volume of 50% DMSO and serially diluted compounds prepared in 50% DMSO. Kinase reactions were started with the addition of 45 μL of the ATP/Y9 or Y5-Sox peptide substrate mix and monitored every 30-90 seconds for 60 minutes at λex360/λem485 in a Synergy^4 plate reader from BioTek (Winooski, Vt.). At the conclusion of each assay, progress curves from each well were examined for linear reaction kinetics and fit statistics (R^2, 95% confidence interval, absolute sum of squares). Initial velocity (0 minutes to 20+ minutes) from each reaction was determined from the slope of a plot of relative fluorescence units vs time (minutes) and then plotted against inhibitor concentration to estimate IC50 from Log [Inhibitor] vs Response, Variable Slope model in GraphPad Prism from GraphPad Software (San Diego, Calif.).
[FLT-3]=15 nM, [ATP]=500 μM and [Y5-Sox peptide]=10 μM (ATP KMapp=470 μM)
(§4) The reported IC50_APP and IC50 values are in units of nM.

KDR [2] = biological target: T1, KDR; experiment: KDR Omnia continuous-read kinase assay; type: biochemical; parameters: purchased Invitrogen or BPS Bioscience PV3660 or 40301; conditions: 30 min pre-incubation; read-out: IC50_APP KDR
Description: as §1, §2
as §3, with “Calif.). […]” for “Calif.).”
as §4

T1 sequence (P35968 20-1356): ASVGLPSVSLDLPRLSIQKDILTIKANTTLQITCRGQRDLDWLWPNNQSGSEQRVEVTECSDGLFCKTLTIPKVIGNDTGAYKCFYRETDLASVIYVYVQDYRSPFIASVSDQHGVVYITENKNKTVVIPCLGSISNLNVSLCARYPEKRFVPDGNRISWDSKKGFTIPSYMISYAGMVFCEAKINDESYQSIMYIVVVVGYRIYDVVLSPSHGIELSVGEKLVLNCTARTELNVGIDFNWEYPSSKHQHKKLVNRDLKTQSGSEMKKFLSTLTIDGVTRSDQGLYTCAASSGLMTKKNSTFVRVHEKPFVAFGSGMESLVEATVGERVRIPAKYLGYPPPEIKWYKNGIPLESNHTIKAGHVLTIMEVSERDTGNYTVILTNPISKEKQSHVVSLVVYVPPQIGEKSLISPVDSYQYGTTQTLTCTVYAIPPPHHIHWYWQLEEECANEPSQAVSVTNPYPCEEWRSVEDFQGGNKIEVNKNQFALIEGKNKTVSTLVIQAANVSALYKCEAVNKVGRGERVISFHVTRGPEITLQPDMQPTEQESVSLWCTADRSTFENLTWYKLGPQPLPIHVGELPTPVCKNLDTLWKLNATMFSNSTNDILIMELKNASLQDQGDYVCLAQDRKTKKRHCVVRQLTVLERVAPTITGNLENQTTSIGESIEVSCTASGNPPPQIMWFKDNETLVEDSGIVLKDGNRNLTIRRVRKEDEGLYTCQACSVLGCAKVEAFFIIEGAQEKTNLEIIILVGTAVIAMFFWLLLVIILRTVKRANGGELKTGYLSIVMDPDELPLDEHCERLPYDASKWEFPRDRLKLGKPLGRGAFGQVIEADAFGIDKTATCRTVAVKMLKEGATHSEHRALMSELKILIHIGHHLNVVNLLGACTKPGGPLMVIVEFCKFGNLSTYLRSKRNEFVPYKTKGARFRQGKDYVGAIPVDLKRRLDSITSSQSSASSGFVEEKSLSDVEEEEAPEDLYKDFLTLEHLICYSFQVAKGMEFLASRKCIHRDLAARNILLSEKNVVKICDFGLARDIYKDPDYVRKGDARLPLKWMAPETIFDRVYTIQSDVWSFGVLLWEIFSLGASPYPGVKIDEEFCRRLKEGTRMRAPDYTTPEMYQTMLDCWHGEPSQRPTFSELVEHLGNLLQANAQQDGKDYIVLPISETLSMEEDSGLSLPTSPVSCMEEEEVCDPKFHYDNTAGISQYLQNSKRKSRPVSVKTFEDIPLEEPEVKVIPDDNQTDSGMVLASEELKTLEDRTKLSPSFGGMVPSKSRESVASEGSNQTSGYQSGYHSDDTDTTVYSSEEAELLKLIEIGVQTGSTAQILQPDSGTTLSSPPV

C=CC(=O)N1CCC(Sc2nc(Nc3ncc(C#N)s3)cc(N3CCN(C)CC3)n2)CC1 [II-2, 2-(2-(1-Acryloylpiperidin-4-ylthio)-6-(4-methylpiperazin-1-yl)pyrimidin-4-ylamino)thiazole-5-carbonitrile]
MH+ of compound-modified tryptic peptide (ICDFGLAR) of KDR (KDR [1]): 1364.63
IC50 (FLT3): 0.000508 µM
IC50 (KDR [2]): 0.0514 µM
